This is an account of results in patent publication US20100168434A1, “INHIBITION OF POLYMERISATION” (priority 2005, published 2010).

Bounds are passed on as bounds.

A short description of data set [1]: Continuous stirred tank reactor (CSTR) styrene polymerisation inhibition. As to conditions: CSTR 110° C., inhibitor 75 ppm; for Polymer level at steady state: nitrogen sparging. How it is done:
The evaluation of the efficacy of a selection of nitroxide compounds of the invention was carried out using a continuous stirred tank reactor (CSTR) which mimicked the re-boiler of a styrene distillation column. […] Data gathered after this point was averaged to give the steady state polymer level. Nitrogen sparging to remove oxygen gas was carried out at a measured rate of 200 ml/minute. Apart from the inhibitors, the only variable was the inherent variation in the rate of thermal initiation of styrene polymerisation.

Data set [2] in a line: Tube polymerisation inhibition, isoprene monomer. Particulars: 100 ppm inhibitor, 160° C. for 1 hr. The method, then:
(§1) The efficacy of various inhibitors was evaluated with respect to the monomers vinyl acetate, acrylonitrile, 2-ethylhexyl acrylate and isoprene. The efficacy of each inhibitor was determined by heating in pure monomer or a solution of monomer in a suitable solvent(s) for a set time and at a known temperature. The storage inhibitor was removed from each monomer by distillation or treatment with neutral silica. In each of the tables below, the amount of polymer generated is expressed as % w/w of the monomer.
Similarly tubes containing 100 ppm inhibitor in a solution of Isoprene in dimethylformamide containing 1 or 3% furfural were heated at 160° C. for 1 hr. […] The results are expressed as ppm insoluble polymer.

Data set [3] can be described thus: Sealed-tube polymerisation inhibition, vinyl acetate monomer. As to conditions: degassed with nitrogen, 160° C. for 48 hours, inhibitor 25 ppm. How it is done:
as §1
In this case, the tubes and solution were degassed with nitrogen prior to sealing and heating at 160° C. for 48 hours.

A short description of data set [4]: Tube polymerisation inhibition, acrylonitrile monomer. Particulars: 120° C. for 7 days, air not removed, inhibitor 10 ppm. The method, then: as §1
Similarly, tubes containing acrylonitrile and various inhibitors were heated at 120° C. for 7 days. The air was not removed from these solutions prior to heating.

Data set [5] can be described thus: Tube inhibition time, 2-ethylhexyl acrylate monomer. As to conditions: 145° C., 5 ppm inhibitor, time to appearance of insoluble polymer. How it is done:
as §1
Similarly, tubes containing 5 ppm inhibitor in 2-ethylhexyl acrylate were heated at 145° C. and the results expressed as inhibition time (i.e. the time to appearance of insoluble polymer). Data were generated in nitrogen and in the presence of air.

Data set [6] can be described thus: Solubility in water and toluene (saturated solutions, amount dissolved).
Data set [7] in a line: Solubility of inhibitors/retarders in styrene with and without 4-butoxy-TEMPO. As to conditions: in 4-butoxy-TEMPO plus styrene, 20° C.
Experimental: Saturated solutions of the inhibitors/retarders phenothiazine and 4-methoxyphenol were prepared in 4-butoxy-TEMPO. These saturated solutions were then added to styrene so that the concentration of each inhibitor/retarder was above the solubility limit for that material in styrene alone.

On to “2,2,6,6-tetramethylpiperidine-1-oxide [TEMPO]”, for which the “Polymer level at steady state” value in data set [1] was 213 ppm.
Take “4-butoxy-2,2,6,6-tetramethylpiperidine-1-oxide [4-butoxy-TEMPO]”: the “Polymer level at steady state” value in data set [1] is recorded as 341 ppm. For the same compound, the “Insoluble polymer, 1% Furfural” value in data set [2] (isoprene in dimethylformamide with 1% furfural) came to 2.2 ppm. The “Insoluble polymer, 3% Furfural” value in data set [2] (isoprene in dimethylformamide with 3% furfural) was found to be 5.3 ppm. Further, the Polymer was 19 % w/w in data set [3] and 0.06 % w/w in data set [4]. Besides, the “Inhibition time in air” value in data set [5] (air) turned out to be 40 min. In data set [5] (nitrogen), the “Inhibition time in nitrogen” value is recorded as 350 min.
On to “4-hydroxy-2,2,6,6-tetramethylpiperidine-1-oxide [4-hydroxy-TEMPO]”, for which the “Polymer level at steady state” value in data set [1] is reported as 180 ppm. This compound also registered a Polymer in data set [4] of 0.18 % w/w.
Consider “4-oxo-2,2,6,6-tetramethylpiperidine-1-oxide [4-oxo-TEMPO]”, for which, in data set [6] (saturated solution in toluene), the Solubility in toluene is more than 80 % wt/wt. The Solubility in water in data set [6] (saturated solution in water) is 22.5 % wt/wt.
Consider `C=CCOC1CC(C)(C)N([O])C(C)(C)C1` [4-allyloxy-TEMPO], for which, in data set [1] (at 120 mins (not steady state)), the “Polymer level (at 120 mins)” value is reported as 15199 (at 120 mins) ppm.
On to `COC1CC(C)(C)N([O])C(C)(C)C1` [4-methoxy-TEMPO], for which, in data set [1], the “Polymer level at steady state” value is recorded as 172 ppm.
`c1ccc2c(c1)Nc1ccccc1S2` [Phenothiazine, phenothiazine] returned a Polymer in data set [3] of 35 % w/w. For the same compound, in data set [7], the “Soluble amount, Wt % test material (with respect to styrene)” value is reported as 7.0 Wt %.
